Measured values: patent publication US5229420A, “Ethereal N-terminal aminodiol amino acid derivatives as anti-hypertensive agents” (G. D. Searle & Co., priority 1991, dated 1993)
Where a SMILES comes first, the peptide text is derived from it. [ ]: non-standard residue; d: D form. The star is where a group is joined. Sta = CC(C)C[C@H](N)[C@@H](O)CC(=O)O; Isovaleryl = CC(C)CC(=O)*

Legend:
Plasma Renin Activity = experiment: Oral Effect of Compounds on Plasma Renin Activity in Sodium Depleted Marmoset; assay type: in vivo, Common marmosets (Callithrix jacchus); settings: @ 1 h, 3 mg/kg dose
Experimental: The oral activity of compounds of Formula I was determined in vivo in Marmoset monkeys in accordance with the following procedure: Common marmosets (Callithrix jacchus, Charles River) were placed on a modified high protein low sodium diet (Purina, St. Louis, Mo.) for 1 to 2 weeks. On the day of the test an animal was anesthetized with isoflurane and cannulated in the femoral artery and vein for blood pressure monitoring, intravenous saralasin infusion and blood sampling. After allowing the animal to recover from surgery for 2 hr, saralasin was infused at 1 microgram/min for 15 minutes to confirm that the animal's blood pressure was dependent on angiotensin II levels. The marmoset was allowed to stabilize for 30 min after the saralasin infusion. The test compound was administered orally and blood pressure was monitored for 2 hr. Blood samples were taken in K-EDTA for plasma renin activity before, 30 min, and 1 hr after compound administration.

human renin = target: T1, human renin (Homo sapiens, UniProt P00797); experiment: human renin inhibition test, in vitro (angiotensin I by radioimmunoassay); assay type: biochemical; settings: pH 7.4, 37° C., two hours
T1 construct: purchased National Institute for Biological Standards, London
T1 sequence (P00797 67-406): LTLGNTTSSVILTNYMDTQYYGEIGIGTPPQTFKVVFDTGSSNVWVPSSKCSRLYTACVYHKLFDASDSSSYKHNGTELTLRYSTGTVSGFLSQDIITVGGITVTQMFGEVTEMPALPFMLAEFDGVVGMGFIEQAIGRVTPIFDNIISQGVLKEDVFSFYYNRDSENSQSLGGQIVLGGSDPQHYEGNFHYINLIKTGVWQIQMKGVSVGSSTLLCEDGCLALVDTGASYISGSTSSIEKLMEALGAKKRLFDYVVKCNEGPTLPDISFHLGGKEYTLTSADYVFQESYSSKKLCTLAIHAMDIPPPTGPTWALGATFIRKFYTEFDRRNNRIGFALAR
Experimental: Compounds of Formula I were evaluated as inhibitors of human renin in an in vitro assay, as follows: This human renin inhibition test has been previously described in detail [Papaioannou et al., Clinical and Experimental Hypertension, A7(9), 1243-1257 (1985)]. Human renin was obtained from the National Institute for Biological Standards, London. An incubation mixture was prepared containing in total volume of 0.25 mL 100 mM Tris-acetate buffer at pH 7.4, 25×10^-6 Goldblatt units of renin, 0.05 mL of plasma from human volunteers taking oral contraceptives,6.0 mM sodium EDTA, 2.4 mM phenylmethyl sulfonyl fluoride, 1.5 mM 8-hydroxyquinoline, 0.4 mg/mL BSA, and 0.024 mg/mL neomycin sulfate. This mixture was incubated for two hours at 37° C. in the presence or absence of renin inhibitors. The produced angiotensin I was determined by radioimmunoassay (New England Nuclear kit). Test compounds to be assayed were solubilized in DMSO and diluted with 100mM Tris-acetate buffer at pH 7.4 containing 0.5 % bovine serum albumin (BSA) to the appropriate concentration. The final concentration of organic solvent in the reaction mixture was less than 1%. Control incubations at 37° C. were used to correct for effects of organic solvent on renin activity.

pepsin = settings: cited from earlier work
renin = settings: cited from earlier work
cathepsin D = settings: cited from earlier work
hog renin = settings: after injection of hog renin into nephrectomized rats; cited from earlier work

IC50 (human renin)	SMILES	% Reduction of Plasma Renin Activity (Plasma Renin Activity)	also measured
10 nM	COCCN(C)C(=O)O[C@@H](Cc1ccccc1)C(=O)N[C@@H](CC(C)C)C(=O)N[C@@H](CC1CCCCC1)[C@@H](O)[C@@H](O)CC(C)C [Example 9, O-(N-methyl-N-(2-methoxyethyl)aminocarbonyl)-3-L-phenyllactyl-L-leucineamide of (2S,3R,4S)-2-amino-1-cyclohexyl-3,4-dihydroxy-6-methylheptane]	79%	
45 nM	COCCN(C)C(=O)C[C@@H](CCc1ccccc1)C(=O)NC[C@@H](C)C(=O)N[C@@H](CC1CCCCC1)[C@@H](O)[C@@H](O)CC(C)C [Example 16, 3-(N-methyl-N-(2-methoxyethyl)aminocarbonyl)-2-(R)-2-phenethylpropionyl-α-(R)-methyl-β-alanineamide of (2S,3R,4S)-2-amino-1-cyclohexyl-3,4-dihydroxy-6-methylheptane]		
62 nM	COCCN(C)C(=O)O[C@@H](Cc1ccccc1)C(=O)NC[C@@H](C)C(=O)N[C@@H](CC1CCCCC1)[C@@H](O)[C@@H](O)CC(C)C [Example 13, O-(N-methyl-N-(2-methoxyethyl)aminocarbonyl)-3-L-phenyllactyl-α-(R)-methyl-β-alanineamide of (2S,3R,4S)-2-amino-1-cyclohexyl-3,4-dihydroxy-6-methylheptane]		
	CC[C@H](CNC(=O)[C@H](CCc1ccccc1)CC(=O)N(C)CCOC)C(=O)N[C@@H](CC1CCCCC1)[C@@H](O)[C@@H](O)CC(C)C [Example 15, 3-(N-methyl-N-(2-methoxyethyl)aminocarbonyl)-2-(R)-(2-phenylethyl)propionyl-α-(R)-ethyl-β-alanineamide of (2S,3R,4S)-2-amino-1-cyclohexyl-3,4-dihydroxy-6-methylheptane]		inhibition at 0.05 µM (human renin; @ 5 × 10^-8 M): 17%
1.2 nM	COCCN(C)C(=O)O[C@@H](Cc1ccccc1)C(=O)N[C@@H](Cc1cnc[nH]1)C(=O)N[C@@H](CC1CCCCC1)[C@@H](O)[C@@H](O)CC(C)C [Example 8, O-[N-methyl-N-(2-methoxyethyl)aminocarbonyl]-3-L-phenyllactyl-L-histidineamide of (2S,3R,4S)-2-amino-1-cyclohexyl-3,4-dihydroxy-6-methylheptane]	99%	
	CC(C)CC(=O)N[C@H](C(=O)N[C@H](C(=O)N[C@@H](CC(C)C)[C@@H](O)CC(=O)N[C@@H](C)C(=O)N[C@@H](CC(C)C)[C@@H](O)CC(=O)O)C(C)C)C(C)C [pepstatin] (Isovaleryl-VV[Sta]A[Sta]-OH)		inhibition of pepsin (in words) (pepsin): inhibitor of aspartyl proteases such as pepsin; inhibition of renin (in words) (renin): inhibitor of aspartyl proteases such as pepsin, cathepsin D and renin; inhibition of cathepsin D (in words) (cathepsin D): inhibitor of aspartyl proteases such as pepsin, cathepsin D; reduction of blood pressure in vivo (hog renin): found to reduce blood pressure in vivo
